In PubChem BioAssay (NCI):
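96-well plates; 48 h exposure; 5 concentrations. Endpoints by linear interpolation between flanking doses. Not reached: highest tested concentration assigned. TGI denotes the concentration required for complete inhibition of growth.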

Experiments:
Test in all cases: DTP human tumour cell line panel, 48 h
HCT-116 colon = test system: HCT-116 colon
NCI-H226 lung = test system: NCI-H226 lung
SN12C renal = test system: SN12C renal
NCI-H522 lung = test system: NCI-H522 lung
OVCAR-8 ovarian = test system: OVCAR-8 ovarian
T-47D breast = test system: T-47D breast
IGROV1 ovarian = test system: IGROV1 ovarian
NCI-H23 lung = test system: NCI-H23 lung
MDA-MB-231 breast = test system: MDA-MB-231 breast
COLO 205 colon = test system: COLO 205 colon
SK-MEL-28 melanoma = test system: SK-MEL-28 melanoma
SK-MEL-2 melanoma = test system: SK-MEL-2 melanoma
NCI/ADR-RES ovarian = test system: NCI/ADR-RES ovarian
KM12 colon = test system: KM12 colon
M14 melanoma = test system: M14 melanoma
HCT-15 colon = test system: HCT-15 colon
CCRF-CEM leukemia = test system: CCRF-CEM leukemia
SNB-19 CNS = test system: SNB-19 CNS
OVCAR-4 ovarian = test system: OVCAR-4 ovarian
HT29 colon = test system: HT29 colon
SNB-75 CNS = test system: SNB-75 CNS
ACHN renal = test system: ACHN renal
OVCAR-3 ovarian = test system: OVCAR-3 ovarian
MCF7 breast = test system: MCF7 breast
SF-539 CNS = test system: SF-539 CNS
CAKI-1 renal = test system: CAKI-1 renal
HOP-62 NSCLC = test system: HOP-62 NSCLC
BT-549 breast = test system: BT-549 breast
SF-295 CNS = test system: SF-295 CNS
K-562 leukemia = test system: K-562 leukemia
SK-OV-3 ovarian = test system: SK-OV-3 ovarian
HOP-92 NSCLC = test system: HOP-92 NSCLC
PC-3 prostate = test system: PC-3 prostate
MDA-MB-435 = test system: MDA-MB-435
UACC-257 melanoma = test system: UACC-257 melanoma
MALME-3M melanoma = test system: MALME-3M melanoma
A498 renal = test system: A498 renal
TK-10 renal = test system: TK-10 renal
UACC-62 melanoma = test system: UACC-62 melanoma
U251 CNS = test system: U251 CNS
786-0 renal = test system: 786-0 renal
LOX IMVI melanoma = test system: LOX IMVI melanoma
HCC-2998 colon = test system: HCC-2998 colon
SK-MEL-5 melanoma = test system: SK-MEL-5 melanoma
EKVX NSCLC = test system: EKVX NSCLC
UO-31 renal = test system: UO-31 renal
SR leukemia = test system: SR leukemia
HL-60(TB) leukemia = test system: HL-60(TB) leukemia
OVCAR-5 ovarian = test system: OVCAR-5 ovarian
MDA-N = test system: MDA-N
A549 NSCLC = test system: A549 NSCLC
SW-620 colon = test system: SW-620 colon
MOLT-4 leukemia = test system: MOLT-4 leukemia
DU-145 prostate = test system: DU-145 prostate
NCI-H460 lung = test system: NCI-H460 lung
HS 578T breast = test system: HS 578T breast
SF-268 CNS = test system: SF-268 CNS
RPMI-8226 leukemia = test system: RPMI-8226 leukemia

NCCSc1nc2ccccc2c(=O)n1-c1ccccc1
TGI (HCT-116 colon): > 100 µM
TGI (NCI-H226 lung): > 100 µM
TGI (SN12C renal): > 100 µM
TGI (NCI-H522 lung): > 100 µM
TGI (OVCAR-8 ovarian): > 100 µM
TGI (T-47D breast): > 100 µM
TGI (IGROV1 ovarian): > 100 µM
TGI (NCI-H23 lung): > 100 µM
TGI (MDA-MB-231 breast): > 100 µM
TGI (COLO 205 colon): > 100 µM
TGI (SK-MEL-28 melanoma): > 100 µM
TGI (SK-MEL-2 melanoma): > 100 µM
TGI (NCI/ADR-RES ovarian): > 100 µM
TGI (KM12 colon): > 100 µM
TGI (M14 melanoma): > 100 µM
TGI (HCT-15 colon): > 100 µM
TGI (CCRF-CEM leukemia): > 100 µM
TGI (SNB-19 CNS): 57.1 µM
TGI (OVCAR-4 ovarian): > 100 µM
TGI (HT29 colon): > 100 µM
TGI (SNB-75 CNS): > 100 µM
TGI (ACHN renal): > 100 µM
TGI (OVCAR-3 ovarian): > 100 µM
TGI (MCF7 breast): > 100 µM
TGI (SF-539 CNS): > 100 µM
TGI (CAKI-1 renal): > 100 µM
TGI (HOP-62 NSCLC): > 100 µM
TGI (BT-549 breast): > 100 µM
TGI (SF-295 CNS): > 100 µM
TGI (K-562 leukemia): > 100 µM
TGI (SK-OV-3 ovarian): > 100 µM
TGI (HOP-92 NSCLC): 65.5 µM
TGI (PC-3 prostate): > 100 µM
TGI (MDA-MB-435): > 100 µM
TGI (UACC-257 melanoma): > 100 µM
TGI (MALME-3M melanoma): > 100 µM
TGI (A498 renal): > 100 µM
TGI (TK-10 renal): > 100 µM
TGI (UACC-62 melanoma): > 100 µM
TGI (U251 CNS): > 100 µM
TGI (786-0 renal): > 100 µM
TGI (LOX IMVI melanoma): > 100 µM
TGI (HCC-2998 colon): > 100 µM
TGI (SK-MEL-5 melanoma): > 100 µM
TGI (EKVX NSCLC): > 100 µM
TGI (UO-31 renal): > 100 µM
TGI (SR leukemia): > 100 µM
TGI (HL-60(TB) leukemia): 90.7 µM
TGI (OVCAR-5 ovarian): > 100 µM
TGI (MDA-N): > 100 µM
TGI (A549 NSCLC): > 100 µM
TGI (SW-620 colon): > 100 µM

CC(C)OC(=O)NNc1cc(Cl)ccc1Cl
TGI (HCT-116 colon): > 100 µM
TGI (SN12C renal): > 100 µM
TGI (NCI-H522 lung): > 100 µM
TGI (OVCAR-8 ovarian): > 100 µM
TGI (MOLT-4 leukemia): > 100 µM
TGI (T-47D breast): > 100 µM
TGI (IGROV1 ovarian): > 100 µM
TGI (NCI-H23 lung): > 100 µM
TGI (MDA-MB-231 breast): > 100 µM
TGI (COLO 205 colon): > 100 µM
TGI (SK-MEL-28 melanoma): > 100 µM
TGI (SK-MEL-2 melanoma): > 100 µM
TGI (NCI/ADR-RES ovarian): > 100 µM
TGI (KM12 colon): > 100 µM
TGI (M14 melanoma): > 100 µM
TGI (HCT-15 colon): > 100 µM
TGI (DU-145 prostate): > 100 µM
TGI (CCRF-CEM leukemia): > 100 µM
TGI (SNB-19 CNS): > 100 µM
TGI (HT29 colon): > 100 µM
TGI (SNB-75 CNS): > 100 µM
TGI (ACHN renal): > 100 µM
TGI (OVCAR-3 ovarian): > 100 µM
TGI (MCF7 breast): > 100 µM
TGI (SF-539 CNS): > 100 µM
TGI (CAKI-1 renal): > 100 µM
TGI (HOP-62 NSCLC): > 100 µM
TGI (NCI-H460 lung): > 100 µM
TGI (BT-549 breast): > 100 µM
TGI (SF-295 CNS): > 100 µM
TGI (K-562 leukemia): > 100 µM
TGI (SK-OV-3 ovarian): > 100 µM
TGI (HOP-92 NSCLC): > 100 µM
TGI (PC-3 prostate): > 100 µM
TGI (MDA-MB-435): > 100 µM
TGI (UACC-257 melanoma): > 100 µM
TGI (MALME-3M melanoma): > 100 µM
TGI (A498 renal): 96.6 µM
TGI (TK-10 renal): > 100 µM
TGI (UACC-62 melanoma): > 100 µM
TGI (U251 CNS): > 100 µM
TGI (786-0 renal): > 100 µM
TGI (LOX IMVI melanoma): > 100 µM
TGI (HCC-2998 colon): > 100 µM
TGI (SK-MEL-5 melanoma): > 100 µM
TGI (HS 578T breast): > 100 µM
TGI (EKVX NSCLC): > 100 µM
TGI (UO-31 renal): > 100 µM
TGI (SF-268 CNS): > 100 µM
TGI (HL-60(TB) leukemia): > 100 µM
TGI (OVCAR-5 ovarian): > 100 µM
TGI (RPMI-8226 leukemia): > 100 µM
TGI (MDA-N): > 100 µM
TGI (A549 NSCLC): > 100 µM
TGI (SW-620 colon): > 100 µM

Cc1cc(C2(O)C=C(C(C)(C)C)C(=O)C(C(C)(C)C)=C2)c(C)cc1C1(O)C=C(C(C)(C)C)C(=O)C(C(C)(C)C)=C1
TGI (HCT-116 colon): > 100 µM
TGI (NCI-H226 lung): > 100 µM
TGI (SN12C renal): > 100 µM
TGI (NCI-H522 lung): > 100 µM
TGI (OVCAR-8 ovarian): > 100 µM
TGI (MOLT-4 leukemia): > 100 µM
TGI (T-47D breast): > 100 µM
TGI (IGROV1 ovarian): > 100 µM
TGI (NCI-H23 lung): > 100 µM
TGI (MDA-MB-231 breast): > 100 µM
TGI (COLO 205 colon): > 100 µM
TGI (SK-MEL-28 melanoma): > 100 µM
TGI (SK-MEL-2 melanoma): > 100 µM
TGI (NCI/ADR-RES ovarian): > 100 µM
TGI (KM12 colon): > 100 µM
TGI (M14 melanoma): > 100 µM
TGI (HCT-15 colon): > 100 µM
TGI (DU-145 prostate): > 100 µM
TGI (CCRF-CEM leukemia): > 100 µM
TGI (SNB-19 CNS): > 100 µM
TGI (OVCAR-4 ovarian): > 100 µM
TGI (HT29 colon): > 100 µM
TGI (SNB-75 CNS): > 100 µM
TGI (ACHN renal): > 100 µM
TGI (MCF7 breast): > 100 µM
TGI (SF-539 CNS): > 100 µM
TGI (CAKI-1 renal): > 100 µM
TGI (HOP-62 NSCLC): > 100 µM
TGI (BT-549 breast): > 100 µM
TGI (SF-295 CNS): > 100 µM
TGI (K-562 leukemia): > 100 µM
TGI (SK-OV-3 ovarian): > 100 µM
TGI (PC-3 prostate): > 100 µM
TGI (UACC-257 melanoma): > 100 µM
TGI (MALME-3M melanoma): > 100 µM
TGI (TK-10 renal): > 100 µM
TGI (UACC-62 melanoma): > 100 µM
TGI (U251 CNS): > 100 µM
TGI (786-0 renal): > 100 µM
TGI (LOX IMVI melanoma): > 100 µM
TGI (SK-MEL-5 melanoma): > 100 µM
TGI (EKVX NSCLC): > 100 µM
TGI (UO-31 renal): > 100 µM
TGI (SR leukemia): > 100 µM
TGI (SF-268 CNS): > 100 µM
TGI (HL-60(TB) leukemia): > 100 µM
TGI (OVCAR-5 ovarian): > 100 µM
TGI (RPMI-8226 leukemia): > 100 µM
TGI (MDA-N): > 100 µM
TGI (A549 NSCLC): > 100 µM
TGI (SW-620 colon): > 100 µM

CCOC(=O)c1ccc(N2C(=S)N(C(=O)c3ccccc3)C(=Nc3ccccc3)C2=Nc2ccccc2)cc1
TGI (NCI-H226 lung): 52.7 µM
TGI (SN12C renal): > 100 µM
TGI (NCI-H522 lung): > 100 µM
TGI (OVCAR-8 ovarian): > 100 µM
TGI (IGROV1 ovarian): > 100 µM
TGI (NCI-H23 lung): > 100 µM
TGI (SK-MEL-28 melanoma): > 100 µM
TGI (SK-MEL-2 melanoma): > 100 µM
TGI (NCI/ADR-RES ovarian): > 100 µM
TGI (KM12 colon): > 100 µM
TGI (M14 melanoma): > 100 µM
TGI (HCT-15 colon): > 100 µM
TGI (DU-145 prostate): > 100 µM
TGI (SNB-19 CNS): > 100 µM
TGI (HT29 colon): > 100 µM
TGI (SNB-75 CNS): 74.6 µM
TGI (ACHN renal): > 100 µM
TGI (OVCAR-3 ovarian): > 100 µM
TGI (MCF7 breast): > 100 µM
TGI (SF-539 CNS): > 100 µM
TGI (CAKI-1 renal): > 100 µM
TGI (HOP-62 NSCLC): > 100 µM
TGI (NCI-H460 lung): > 100 µM
TGI (BT-549 breast): > 100 µM
TGI (SF-295 CNS): > 100 µM
TGI (K-562 leukemia): > 100 µM
TGI (SK-OV-3 ovarian): > 100 µM
TGI (HOP-92 NSCLC): 78.7 µM
TGI (PC-3 prostate): > 100 µM
TGI (MDA-MB-435): > 100 µM
TGI (UACC-257 melanoma): > 100 µM
TGI (MALME-3M melanoma): > 100 µM
TGI (TK-10 renal): > 100 µM
TGI (UACC-62 melanoma): > 100 µM
TGI (U251 CNS): > 100 µM
TGI (786-0 renal): > 100 µM
TGI (HCC-2998 colon): > 100 µM
TGI (SK-MEL-5 melanoma): > 100 µM
TGI (HS 578T breast): > 100 µM
TGI (EKVX NSCLC): > 100 µM
TGI (UO-31 renal): > 100 µM
TGI (SR leukemia): > 100 µM
TGI (SF-268 CNS): > 100 µM
TGI (OVCAR-5 ovarian): > 100 µM
TGI (RPMI-8226 leukemia): > 100 µM
TGI (MDA-N): > 100 µM
TGI (A549 NSCLC): > 100 µM
TGI (SW-620 colon): > 100 µM
